Data published in ChEMBL document CHEMBL1201862, “PubChem BioAssay data set” (2004).
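Step 1: Grow cells in 96-well plates. Step 2: Expose to compound for 48 hours at 5 concentrations. Step 3: Interpolate endpoints linearly; if unreached, use highest concentration. GI50 marks 50% less growth.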 Active and inactive are the calls of the source. Cut-off read from the data, not from the text of the source: active = GI50 up to about 1.1 µM and inactive = higher.

What was measured:
Test in all cases: DTP human tumour cell line panel, 48 h
TK-10 = system: TK-10
UACC-257 = system: UACC-257
MDA-MB-231 = system: MDA-MB-231
CCRF-CEM = system: CCRF-CEM
A549 = system: A549
SN12C = system: SN12C
RXF 393 = system: RXF 393
786-0 = system: 786-0
SF-268 = system: SF-268
SK-MEL-28 = system: SK-MEL-28
COLO 205 = system: COLO 205
OVCAR-8 = system: OVCAR-8
SNB-75 = system: SNB-75
HL-60 = system: HL-60
HOP-62 = system: HOP-62
MCF7 = system: MCF7
K562 = system: K562
IGROV-1 = system: IGROV-1
MDA-N = system: MDA-N
LOX IMVI = system: LOX IMVI
T47D = system: T47D
RPMI-8226 = system: RPMI-8226
PC-3 = system: PC-3
SF-295 = system: SF-295
SK-OV-3 = system: SK-OV-3
EKVX = system: EKVX
Malme-3M = system: Malme-3M
SK-MEL-5 = system: SK-MEL-5
SR = system: SR
CAKI-1 = system: CAKI-1
DU-145 = system: DU-145
NCI-H23 = system: NCI-H23
HT-29 = system: HT-29
MOLT-4 = system: MOLT-4
HCT-15 = system: HCT-15
M14 = system: M14
UACC-62 = system: UACC-62
SW-620 = system: SW-620
KM12 = system: KM12
HCC 2998 = system: HCC 2998
SNB-19 = system: SNB-19
OVCAR-5 = system: OVCAR-5
Hs-578T = system: Hs-578T
NCI/ADR-RES = system: NCI/ADR-RES
HCT-116 = system: HCT-116
U-251 = system: U-251
OVCAR-3 = system: OVCAR-3
SF-539 = system: SF-539
UO-31 = system: UO-31
NCI-H522 = system: NCI-H522
NCI-H226 = system: NCI-H226
MDA-MB-435 = system: MDA-MB-435
HOP-92 = system: HOP-92
ACHN = system: ACHN
SK-MEL-2 = system: SK-MEL-2
OVCAR-4 = system: OVCAR-4
A498 = system: A498
NCI-H460 = system: NCI-H460

Measured: GI50

CCOc1ccc(-c2nc(-c3oc4ccccc4c(=O)c3OC(C)=O)cs2)cc1
inactive: TK-10 > 10 µM | UACC-257 > 10 µM | MDA-MB-231 > 10 µM | CCRF-CEM 7.57 µM | A549 > 10 µM | SN12C 9.93 µM | RXF 393 2.62 µM | 786-0 > 10 µM | SF-268 9.06 µM | SK-MEL-28 6.71 µM | COLO 205 > 10 µM | OVCAR-8 > 10 µM | SNB-75 8.97 µM | HL-60 > 10 µM | HOP-62 > 10 µM | MCF7 3.52 µM | K562 5.5 µM | IGROV-1 > 10 µM | MDA-N 6.18 µM | LOX IMVI > 10 µM | T47D > 10 µM | RPMI-8226 > 10 µM | PC-3 > 10 µM | SF-295 > 10 µM | SK-OV-3 > 10 µM | EKVX > 10 µM | Malme-3M > 10 µM | SK-MEL-5 > 10 µM | SR > 10 µM | CAKI-1 > 10 µM | DU-145 > 10 µM | NCI-H23 > 10 µM | HT-29 > 10 µM | MOLT-4 > 10 µM | M14 > 10 µM | UACC-62 > 10 µM | SW-620 > 10 µM | KM12 > 10 µM | HCC 2998 > 10 µM
7.13 µM: HCT-15

NC1NCCC(=O)N1CCc1c[nH]c2ccccc12 (stereo not drawn)
inactive: TK-10 25.9 µM | UACC-257 17.8 µM | MDA-MB-231 13.2 µM | CCRF-CEM 23.6 µM | A549 26.1 µM | SNB-19 33.7 µM | SN12C 27.2 µM | RXF 393 22.8 µM | 786-0 20 µM | OVCAR-5 23.6 µM | SF-268 22.1 µM | SK-MEL-28 19.3 µM | COLO 205 18.3 µM | OVCAR-8 39.7 µM | SNB-75 6.98 µM | HL-60 24.8 µM | Hs-578T 23.4 µM | HOP-62 19.2 µM | MCF7 15.5 µM | NCI/ADR-RES 24.5 µM | K562 22.4 µM | IGROV-1 25.4 µM | MDA-N 17.6 µM | HCT-116 13.6 µM | LOX IMVI 12.9 µM | U-251 65.2 µM | T47D 37.2 µM | RPMI-8226 37.2 µM | OVCAR-3 20.9 µM | PC-3 19.3 µM | SF-295 24.5 µM | SK-OV-3 > 100 µM | SF-539 16.7 µM | EKVX 28.1 µM | Malme-3M 19.9 µM | SK-MEL-5 16.9 µM | UO-31 41.6 µM | NCI-H522 87.5 µM | SR 29 µM | NCI-H226 28.7 µM | CAKI-1 29.2 µM | MDA-MB-435 17 µM | DU-145 23.7 µM | HOP-92 31.1 µM | NCI-H23 18.7 µM | HT-29 27.2 µM | ACHN 24.6 µM | M14 19.2 µM | SK-MEL-2 19.9 µM | UACC-62 20.1 µM | SW-620 21.3 µM | OVCAR-4 27.1 µM | A498 12.7 µM | NCI-H460 16.8 µM | KM12 15.5 µM | HCC 2998 18.5 µM
19.5 µM: HCT-15

N/N=C1/C(=N/O)CCc2nonc21
> 100 µM: HCT-15
inactive: TK-10 > 100 µM | UACC-257 > 100 µM | MDA-MB-231 > 100 µM | CCRF-CEM > 100 µM | A549 > 100 µM | SNB-19 84.1 µM | SN12C > 100 µM | RXF 393 > 100 µM | 786-0 > 100 µM | OVCAR-5 > 100 µM | SF-268 > 100 µM | SK-MEL-28 > 100 µM | COLO 205 > 100 µM | OVCAR-8 > 100 µM | SNB-75 > 100 µM | HL-60 > 100 µM | Hs-578T > 100 µM | HOP-62 > 100 µM | MCF7 > 100 µM | NCI/ADR-RES > 100 µM | K562 > 100 µM | IGROV-1 > 100 µM | MDA-N > 100 µM | HCT-116 > 100 µM | LOX IMVI > 100 µM | U-251 > 100 µM | T47D > 100 µM | RPMI-8226 > 100 µM | OVCAR-3 > 100 µM | PC-3 > 100 µM | SF-295 > 100 µM | SK-OV-3 > 100 µM | SF-539 > 100 µM | EKVX 41.6 µM | Malme-3M > 100 µM | SK-MEL-5 > 100 µM | UO-31 28.6 µM | SR > 100 µM | NCI-H226 24.6 µM | CAKI-1 > 100 µM | MDA-MB-435 > 100 µM | DU-145 > 100 µM | HOP-92 > 100 µM | NCI-H23 > 100 µM | HT-29 > 100 µM | MOLT-4 > 100 µM | ACHN > 100 µM | M14 > 100 µM | SK-MEL-2 > 100 µM | UACC-62 > 100 µM | SW-620 > 100 µM | OVCAR-4 > 100 µM | NCI-H460 > 100 µM | KM12 > 100 µM | HCC 2998 > 100 µM
